Experiment [1] addresses T1, Alpha-1A adrenergic receptor (Homo sapiens, UniProt P35348).
T1 sequence (P35348 whole entry): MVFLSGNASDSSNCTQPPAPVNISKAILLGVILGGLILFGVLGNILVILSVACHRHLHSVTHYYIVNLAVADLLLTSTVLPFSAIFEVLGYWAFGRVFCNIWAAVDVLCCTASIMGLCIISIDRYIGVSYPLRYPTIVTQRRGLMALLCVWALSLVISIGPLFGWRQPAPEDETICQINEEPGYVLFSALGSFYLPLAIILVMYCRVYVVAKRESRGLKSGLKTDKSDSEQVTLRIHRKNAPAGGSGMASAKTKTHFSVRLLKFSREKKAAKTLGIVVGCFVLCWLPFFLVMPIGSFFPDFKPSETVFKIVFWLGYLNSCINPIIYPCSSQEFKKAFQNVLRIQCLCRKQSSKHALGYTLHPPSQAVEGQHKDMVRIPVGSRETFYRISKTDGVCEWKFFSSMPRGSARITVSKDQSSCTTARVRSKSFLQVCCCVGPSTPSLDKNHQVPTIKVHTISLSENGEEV
Format: functional, cell-based.

Experiment [2] concerns the target Histamine H3 receptor (Homo sapiens, UniProt Q9Y5N1).
Experiment [3] concerns the target T2, Muscarinic acetylcholine receptor M2 (Homo sapiens, UniProt P08172).
T2 sequence (P08172 whole entry): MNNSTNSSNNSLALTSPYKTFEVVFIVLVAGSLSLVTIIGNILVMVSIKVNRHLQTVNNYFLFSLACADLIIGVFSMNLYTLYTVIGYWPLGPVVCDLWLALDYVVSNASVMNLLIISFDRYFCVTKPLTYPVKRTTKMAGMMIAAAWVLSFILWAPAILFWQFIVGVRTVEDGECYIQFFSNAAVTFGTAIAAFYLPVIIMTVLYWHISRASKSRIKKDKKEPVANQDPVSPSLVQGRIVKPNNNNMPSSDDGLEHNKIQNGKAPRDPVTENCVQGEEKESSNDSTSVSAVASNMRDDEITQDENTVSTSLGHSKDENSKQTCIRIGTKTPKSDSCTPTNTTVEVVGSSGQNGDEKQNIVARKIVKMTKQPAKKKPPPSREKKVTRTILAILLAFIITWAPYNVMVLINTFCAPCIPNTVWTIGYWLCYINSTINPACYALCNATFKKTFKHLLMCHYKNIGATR

The target in experiment [4] is T3, Prostaglandin G/H synthase 1 (Homo sapiens, UniProt P23219). Format: functional.
The target in experiment [5] is T4, Muscarinic acetylcholine receptor M1 (Homo sapiens, UniProt P11229).
T4 sequence (P11229 whole entry): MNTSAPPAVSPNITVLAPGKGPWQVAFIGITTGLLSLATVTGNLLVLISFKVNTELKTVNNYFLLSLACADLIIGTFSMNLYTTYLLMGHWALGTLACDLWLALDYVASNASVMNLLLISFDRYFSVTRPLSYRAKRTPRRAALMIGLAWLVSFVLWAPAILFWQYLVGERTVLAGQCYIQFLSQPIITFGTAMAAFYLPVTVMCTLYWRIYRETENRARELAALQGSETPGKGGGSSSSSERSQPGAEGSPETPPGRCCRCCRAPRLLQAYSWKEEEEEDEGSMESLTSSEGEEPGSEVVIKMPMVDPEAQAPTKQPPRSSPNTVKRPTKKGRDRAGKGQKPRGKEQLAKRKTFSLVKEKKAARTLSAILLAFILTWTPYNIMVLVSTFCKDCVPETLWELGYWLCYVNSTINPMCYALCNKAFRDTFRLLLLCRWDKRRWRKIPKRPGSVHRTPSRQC
Format: functional, cell-based.

Experiment [6] concerns the target cGMP-inhibited 3',5'-cyclic phosphodiesterase 3A (Homo sapiens, UniProt Q14432). It counts as functional.
The target in experiment [7] is T3, Prostaglandin G/H synthase 1. It counts as functional. The source holds these as a separate data set.
In experiment [8] the target is T1, Alpha-1A adrenergic receptor. It counts as functional, cell-based. The source holds these as a separate data set.
Experiment [9] concerns the target Sodium-dependent serotonin transporter (Homo sapiens, UniProt P31645).
Experiment [10] concerns the target T5, Estrogen receptor (Homo sapiens, UniProt P03372).
T5 sequence (P03372 whole entry): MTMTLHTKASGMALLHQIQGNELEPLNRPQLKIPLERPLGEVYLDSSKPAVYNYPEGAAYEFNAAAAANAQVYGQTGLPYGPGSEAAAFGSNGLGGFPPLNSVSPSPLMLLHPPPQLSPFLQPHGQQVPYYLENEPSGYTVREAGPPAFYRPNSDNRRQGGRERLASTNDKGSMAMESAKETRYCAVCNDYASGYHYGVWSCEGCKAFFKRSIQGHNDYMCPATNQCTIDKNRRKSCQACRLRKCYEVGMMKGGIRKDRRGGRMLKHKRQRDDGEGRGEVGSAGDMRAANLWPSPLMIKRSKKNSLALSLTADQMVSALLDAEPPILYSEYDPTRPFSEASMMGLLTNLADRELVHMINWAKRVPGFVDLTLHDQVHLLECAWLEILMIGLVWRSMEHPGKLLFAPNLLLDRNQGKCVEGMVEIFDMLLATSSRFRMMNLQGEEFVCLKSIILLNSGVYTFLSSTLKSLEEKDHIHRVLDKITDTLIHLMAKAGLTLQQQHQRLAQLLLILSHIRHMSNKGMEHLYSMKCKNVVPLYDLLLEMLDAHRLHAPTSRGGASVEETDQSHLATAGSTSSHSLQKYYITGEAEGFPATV

Experiment [11] concerns the target 3',5'-cyclic-AMP phosphodiesterase 4A (Homo sapiens, UniProt P27815). Format: functional.
Experiment [12] addresses Mu-type opioid receptor (Homo sapiens, UniProt P35372).
The target of experiment [13] is Voltage-gated inwardly rectifying potassium channel KCNH2 (Homo sapiens, UniProt Q12809). It counts as functional. Particulars: read-out: AC50.

Bounds are passed on as bounds.

One may read the AC50 as the midpoint of the concentration-response curve, whichever way the signal moves.
Also: assay procedure not described here.

Chain of 3',5'-cyclic-AMP phosphodiesterase 4A (P27815 whole entry): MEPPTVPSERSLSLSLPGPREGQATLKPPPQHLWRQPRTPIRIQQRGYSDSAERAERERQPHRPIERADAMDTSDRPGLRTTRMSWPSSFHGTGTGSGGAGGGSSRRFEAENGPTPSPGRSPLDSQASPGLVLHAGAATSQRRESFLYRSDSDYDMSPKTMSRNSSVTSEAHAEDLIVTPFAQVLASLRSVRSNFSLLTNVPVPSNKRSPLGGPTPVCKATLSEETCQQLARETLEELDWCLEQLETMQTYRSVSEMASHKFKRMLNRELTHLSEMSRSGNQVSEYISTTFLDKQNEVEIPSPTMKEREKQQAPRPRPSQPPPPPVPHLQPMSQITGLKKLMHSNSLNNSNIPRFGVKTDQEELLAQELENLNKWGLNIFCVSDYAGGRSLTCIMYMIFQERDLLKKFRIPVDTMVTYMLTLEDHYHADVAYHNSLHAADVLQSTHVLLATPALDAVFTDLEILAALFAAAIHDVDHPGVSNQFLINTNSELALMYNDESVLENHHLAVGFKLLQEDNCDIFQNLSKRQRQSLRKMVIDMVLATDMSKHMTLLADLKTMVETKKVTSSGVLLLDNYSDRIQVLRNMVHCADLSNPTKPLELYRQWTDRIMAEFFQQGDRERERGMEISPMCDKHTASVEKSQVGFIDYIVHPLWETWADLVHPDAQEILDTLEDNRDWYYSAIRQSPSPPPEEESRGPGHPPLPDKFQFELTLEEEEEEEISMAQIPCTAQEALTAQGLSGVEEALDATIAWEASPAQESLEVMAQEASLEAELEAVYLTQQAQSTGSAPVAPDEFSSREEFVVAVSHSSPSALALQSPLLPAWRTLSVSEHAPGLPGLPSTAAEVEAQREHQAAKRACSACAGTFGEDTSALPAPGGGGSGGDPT
Chain of Voltage-gated inwardly rectifying potassium channel KCNH2 (Q12809 whole entry): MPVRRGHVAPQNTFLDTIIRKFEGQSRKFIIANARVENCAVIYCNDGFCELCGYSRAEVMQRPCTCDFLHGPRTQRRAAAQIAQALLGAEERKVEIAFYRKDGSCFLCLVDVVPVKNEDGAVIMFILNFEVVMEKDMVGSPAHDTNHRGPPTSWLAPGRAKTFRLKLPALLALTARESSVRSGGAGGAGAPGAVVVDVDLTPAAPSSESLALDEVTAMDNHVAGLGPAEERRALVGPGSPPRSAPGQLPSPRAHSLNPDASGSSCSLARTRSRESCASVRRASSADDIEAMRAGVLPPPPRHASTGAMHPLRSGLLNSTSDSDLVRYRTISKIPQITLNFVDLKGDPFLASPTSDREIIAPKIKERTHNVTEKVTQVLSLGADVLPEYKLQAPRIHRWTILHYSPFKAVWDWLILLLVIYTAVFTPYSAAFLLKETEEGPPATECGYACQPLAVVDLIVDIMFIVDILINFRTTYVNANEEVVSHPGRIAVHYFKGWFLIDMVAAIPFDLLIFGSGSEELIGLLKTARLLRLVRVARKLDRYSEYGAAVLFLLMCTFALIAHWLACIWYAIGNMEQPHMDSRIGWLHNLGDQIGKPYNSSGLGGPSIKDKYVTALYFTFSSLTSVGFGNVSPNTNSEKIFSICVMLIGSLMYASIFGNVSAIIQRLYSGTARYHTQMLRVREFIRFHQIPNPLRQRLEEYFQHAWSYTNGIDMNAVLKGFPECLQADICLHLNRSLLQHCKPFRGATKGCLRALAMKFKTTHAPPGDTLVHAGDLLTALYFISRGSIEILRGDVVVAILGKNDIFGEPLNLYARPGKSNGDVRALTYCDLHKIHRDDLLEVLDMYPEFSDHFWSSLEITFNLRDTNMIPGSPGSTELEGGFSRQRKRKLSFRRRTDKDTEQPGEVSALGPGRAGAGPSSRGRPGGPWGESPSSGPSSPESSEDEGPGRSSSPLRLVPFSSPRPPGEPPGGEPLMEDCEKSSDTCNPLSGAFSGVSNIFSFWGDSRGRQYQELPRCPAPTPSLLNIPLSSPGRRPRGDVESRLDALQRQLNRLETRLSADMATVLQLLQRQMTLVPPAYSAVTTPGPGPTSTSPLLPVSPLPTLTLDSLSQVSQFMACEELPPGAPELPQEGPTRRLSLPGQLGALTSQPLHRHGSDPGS
Chain of cGMP-inhibited 3',5'-cyclic phosphodiesterase 3A (Q14432 whole entry): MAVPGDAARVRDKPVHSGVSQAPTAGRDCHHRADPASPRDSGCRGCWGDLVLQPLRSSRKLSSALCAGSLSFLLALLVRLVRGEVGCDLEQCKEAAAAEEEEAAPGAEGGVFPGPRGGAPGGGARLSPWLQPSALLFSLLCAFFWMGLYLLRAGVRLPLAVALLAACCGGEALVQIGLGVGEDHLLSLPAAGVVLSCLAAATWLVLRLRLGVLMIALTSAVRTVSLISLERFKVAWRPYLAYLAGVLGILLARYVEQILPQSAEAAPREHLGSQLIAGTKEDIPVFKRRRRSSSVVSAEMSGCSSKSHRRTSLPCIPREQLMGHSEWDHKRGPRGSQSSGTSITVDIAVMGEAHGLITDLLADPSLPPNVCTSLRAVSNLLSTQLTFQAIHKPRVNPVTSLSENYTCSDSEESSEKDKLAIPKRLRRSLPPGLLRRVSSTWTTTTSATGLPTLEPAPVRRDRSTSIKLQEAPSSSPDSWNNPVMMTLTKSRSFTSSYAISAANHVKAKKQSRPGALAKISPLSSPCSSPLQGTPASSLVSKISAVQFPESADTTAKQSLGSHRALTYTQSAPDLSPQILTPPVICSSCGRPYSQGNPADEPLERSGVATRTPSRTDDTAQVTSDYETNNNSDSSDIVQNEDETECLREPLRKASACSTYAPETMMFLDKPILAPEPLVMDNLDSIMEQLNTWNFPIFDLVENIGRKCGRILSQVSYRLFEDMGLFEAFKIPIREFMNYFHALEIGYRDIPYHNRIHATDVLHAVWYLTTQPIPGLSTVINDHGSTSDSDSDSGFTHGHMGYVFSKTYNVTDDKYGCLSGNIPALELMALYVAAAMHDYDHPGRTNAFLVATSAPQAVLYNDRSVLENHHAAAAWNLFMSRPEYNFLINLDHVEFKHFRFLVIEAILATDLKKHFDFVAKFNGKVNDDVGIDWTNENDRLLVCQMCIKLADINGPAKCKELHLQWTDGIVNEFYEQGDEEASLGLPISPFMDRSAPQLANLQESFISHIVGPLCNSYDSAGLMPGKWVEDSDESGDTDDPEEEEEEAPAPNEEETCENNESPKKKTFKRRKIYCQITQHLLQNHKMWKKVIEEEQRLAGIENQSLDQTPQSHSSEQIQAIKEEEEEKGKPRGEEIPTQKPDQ
T3 sequence (P23219 whole entry): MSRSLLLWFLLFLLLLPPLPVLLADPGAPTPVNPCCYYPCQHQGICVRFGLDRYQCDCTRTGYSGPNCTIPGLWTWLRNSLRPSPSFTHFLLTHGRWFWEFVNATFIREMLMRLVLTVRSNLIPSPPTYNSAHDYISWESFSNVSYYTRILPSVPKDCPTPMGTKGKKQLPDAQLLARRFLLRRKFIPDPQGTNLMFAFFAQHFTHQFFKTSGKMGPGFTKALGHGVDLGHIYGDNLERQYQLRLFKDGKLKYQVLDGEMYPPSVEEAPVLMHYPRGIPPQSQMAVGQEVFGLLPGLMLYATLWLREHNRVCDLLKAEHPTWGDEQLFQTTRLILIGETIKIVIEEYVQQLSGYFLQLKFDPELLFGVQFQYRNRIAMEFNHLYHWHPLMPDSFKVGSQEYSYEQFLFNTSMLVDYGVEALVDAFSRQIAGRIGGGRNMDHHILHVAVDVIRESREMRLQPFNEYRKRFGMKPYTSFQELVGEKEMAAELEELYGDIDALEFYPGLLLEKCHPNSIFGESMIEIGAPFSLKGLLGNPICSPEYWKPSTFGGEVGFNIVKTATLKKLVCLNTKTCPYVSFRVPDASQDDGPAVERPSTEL
Chain of Histamine H3 receptor (Q9Y5N1 whole entry): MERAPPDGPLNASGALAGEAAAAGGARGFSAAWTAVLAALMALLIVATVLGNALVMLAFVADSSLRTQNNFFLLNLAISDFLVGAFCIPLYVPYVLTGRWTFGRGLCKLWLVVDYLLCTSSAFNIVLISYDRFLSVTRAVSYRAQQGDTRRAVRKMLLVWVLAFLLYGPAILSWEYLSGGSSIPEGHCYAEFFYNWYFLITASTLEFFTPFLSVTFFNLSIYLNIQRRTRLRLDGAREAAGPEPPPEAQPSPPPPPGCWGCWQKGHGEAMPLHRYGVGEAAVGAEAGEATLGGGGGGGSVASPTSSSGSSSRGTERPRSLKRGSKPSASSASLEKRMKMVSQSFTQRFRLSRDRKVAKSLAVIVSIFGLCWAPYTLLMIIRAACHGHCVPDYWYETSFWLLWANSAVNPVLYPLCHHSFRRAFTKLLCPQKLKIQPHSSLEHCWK
Chain of Mu-type opioid receptor (P35372 whole entry): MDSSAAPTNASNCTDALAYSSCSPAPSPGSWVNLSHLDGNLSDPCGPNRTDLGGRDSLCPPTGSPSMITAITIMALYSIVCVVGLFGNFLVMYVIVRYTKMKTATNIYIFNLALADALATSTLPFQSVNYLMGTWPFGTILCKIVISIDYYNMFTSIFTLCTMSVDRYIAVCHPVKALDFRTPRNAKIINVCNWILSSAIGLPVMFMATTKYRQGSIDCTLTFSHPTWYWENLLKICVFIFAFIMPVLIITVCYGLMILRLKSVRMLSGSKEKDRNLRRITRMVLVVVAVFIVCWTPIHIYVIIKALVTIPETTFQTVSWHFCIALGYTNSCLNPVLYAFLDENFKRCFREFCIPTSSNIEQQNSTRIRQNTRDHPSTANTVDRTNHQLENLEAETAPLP

Take `N=c1ccn2c(n1)O[C@H]1[C@H](O)[C@@H](CO)O[C@H]12` [ANCITABINE]: the AC50 in experiment [1], in [2], in experiment [3], in [4], in experiment [5] and in experiment [6] was over 30 µM in each case. Further, the AC50 in experiment [7], in experiment [8], in [9], in experiment [10], in experiment [11] and in [12] was over 30 µM in each case. Moreover, the AC50 in experiment [13] was over 30 µM.
Consider `CCN(CC)CCOC(=O)C(c1ccccc1)C1CCCCC1` (configuration not stated) [DROFENINE], for which the AC50 in experiment [1] was 9.55 µM; in experiment [2], over 30 µM; in experiment [3] it was 0.0342 µM; in [4], over 30 µM; in experiment [5], 0.0078 µM; in [6], over 30 µM. Moreover, the AC50 in experiment [7] is over 30 µM; in [8], over 30 µM; in experiment [9] it was over 30 µM; in [10], over 30 µM; in experiment [11] it was over 30 µM; in experiment [12], 25.3 µM. The AC50 in experiment [13] turned out to be 4.7 µM.
Turning to `CC(=O)OCC(=O)[C@@]1(O)CC[C@H]2[C@@H]3CCC4=CC(=O)C=C[C@]4(C)[C@@]3(Cl)[C@@H](Cl)C[C@@]21C` [DICHLORISONE ACETATE], the AC50 in experiment [1], in [2], in experiment [3], in [4], in experiment [5] and in [6] was over 30 µM in each case. The AC50 in experiment [7], in experiment [8], in experiment [9], in [10], in experiment [11] and in experiment [12] was over 30 µM throughout. Moreover, the AC50 in experiment [13] was over 30 µM.
On to `Cc1cc(NS(=O)(=O)c2ccc(N)cc2)nc(C)n1` [SULFISOMIDINE], for which the AC50 in experiment [1], in experiment [2], in [3], in experiment [4], in [5] and in [6] was over 30 µM throughout. In addition, the AC50 was over 30 µM in [7]; over 30 µM in [8]; over 30 µM in experiment [9]; over 30 µM in experiment [10]; 3.58 µM in experiment [11]; over 30 µM in experiment [12]. In addition, the AC50 in experiment [13] was over 30 µM.
On to `CCCCS(=O)(=O)N[C@@H](Cc1ccc(OCCCCC2CCNCC2)cc1)C(=O)O` [TIROFIBAN], for which the AC50 was over 10 µM in [1]; over 30 µM in experiment [2]; 20.4 µM in experiment [3]; over 30 µM in [4]; over 10 µM in [5]; over 30 µM in [6]. The AC50 is over 30 µM in experiment [7]; over 30 µM in experiment [8]; 9.96 µM in experiment [9]; over 30 µM in experiment [10]; over 30 µM in experiment [11]; over 30 µM in experiment [12]. Also, in experiment [13], the AC50 is over 30 µM.
Consider `CC(C)(C)NCC(O)COc1cccc2c1SCCC2` (configuration not stated) [TERTATOLOL], for which the AC50 in experiment [1], in experiment [2], in [3], in experiment [4], in experiment [5] and in [6] was over 30 µM in each case. Moreover, the AC50 is over 30 µM in experiment [7]; over 30 µM in experiment [8]; 17.3 µM in experiment [9]; over 30 µM in [10]; over 30 µM in [11]; over 30 µM in [12]. Besides, in experiment [13], the AC50 is over 30 µM.
Take `CC(C)COC(=O)OCN1C(=O)CN(CCN2CC(=O)N(COC(=O)OCC(C)C)C(=O)C2)CC1=O` [SOBUZOXANE]: the concentration at half-maximal activity (AC50) in experiment [1], in experiment [2], in [3], in experiment [4], in experiment [5] and in experiment [6] was over 30 µM each time. The AC50 in experiment [7] was 29.8 µM; in experiment [8] it was over 30 µM; in [9], over 30 µM; in experiment [10], over 30 µM; in experiment [11], over 30 µM; in experiment [12] it was over 30 µM. In [13], the AC50 is over 30 µM.
As for `Clc1ccc(C(OCCN2CCCCC2)c2ccccc2)cc1` (configuration not stated) [CLOPERASTINE], the AC50 in [1] is 1.27 µM; in [2], over 30 µM; in [3], 0.331 µM; in experiment [4] it was over 30 µM; in experiment [5], 0.551 µM; in experiment [6] it was over 30 µM. In addition, the AC50 in [7] is over 30 µM; in experiment [8], over 30 µM; in experiment [9] it was 15.4 µM; in experiment [10], over 30 µM; in [11], over 30 µM; in experiment [12] it was 13.6 µM. Besides, the AC50 in experiment [13] was found to be 0.2 µM.
Consider `CCCCOC(=O)C(=O)[C@H]1[C@H](C)C[C@H]2[C@@H]3C[C@H](F)C4=CC(=O)C=C[C@]4(C)[C@H]3[C@@H](O)C[C@@]21C` [FLUOCORTIN BUTYL], for which the AC50 in experiment [1] is 13.1 µM; in [2], over 30 µM; in [3], over 30 µM; in experiment [4] it was over 30 µM; in [5], 19.8 µM; in [6], over 30 µM. The AC50 in experiment [7], in experiment [8], in [9], in experiment [10], in experiment [11] and in [12] was over 30 µM throughout. Also, in experiment [13], the AC50 was determined as 16 µM.

Source of the values: ChEMBL document CHEMBL5291721, “A preclinical secondary pharmacology resource illuminates target-adverse drug reaction associations of marketed drugs” (Nat Commun, 2023).
